Source: ChEMBL document CHEMBL3817806, “Novel benzimidazol-2-ylidene carbene precursors and their silver(I) complexes: Potential antimicrobial agents” (2016)
≈ marks a conversion by molar mass, not a printed value.

Tests used:
Assay type in all cases: functional
Candida tropicalis = assay: Antifungal activity against Candida tropicalis ATCC 13803 after 48 hrs by agar dilution method; details: ATCC 13803, 48 h
Candida albicans = assay: Antifungal activity against Candida albicans ATCC 10231 after 48 hrs by agar dilution method; details: ATCC 10231, 48 h
Enterococcus faecalis = assay: Antibacterial activity against Enterococcus faecalis ATCC 29212 after 16 to 20 hrs by agar dilution method
Pseudomonas aeruginosa = assay: Antibacterial activity against Pseudomonas aeruginosa ATCC 27853 after 16 to 20 hrs by agar dilution method
Escherichia coli = assay: Antibacterial activity against Escherichia coli ATCC 25922 after 16 to 20 hrs by agar dilution method
Staphylococcus aureus = assay: Antibacterial activity against Staphylococcus aureus ATCC 29213 after 16 to 20 hrs by agar dilution method

CCOc1ccccc1OCCn1c[n+](Cc2ccc(C(C)(C)C)cc2)c2ccccc21.[Br-]
MIC (Candida tropicalis): 50 µg/mL
MIC (Candida albicans): 50 µg/mL
MIC (Enterococcus faecalis): 200 µg/mL
MIC (Pseudomonas aeruginosa): 400 µg/mL
MIC (Escherichia coli): 50 µg/mL
MIC (Staphylococcus aureus): 50 µg/mL

CCOc1ccccc1OCCn1c[n+](CCOC)c2ccccc21.[Br-]
MIC (Candida tropicalis): 800 µg/mL
MIC (Candida albicans): 800 µg/mL
MIC (Enterococcus faecalis): 800 µg/mL
MIC (Pseudomonas aeruginosa): 800 µg/mL
MIC (Escherichia coli): 800 µg/mL
MIC (Staphylococcus aureus): 800 µg/mL

CCOc1ccccc1OCCn1c[n+](Cc2ccc(C(C)C)cc2)c2ccccc21.[Br-]
MIC (Candida tropicalis): 400 µg/mL
MIC (Candida albicans): 400 µg/mL
MIC (Enterococcus faecalis): 800 µg/mL
MIC (Pseudomonas aeruginosa): 800 µg/mL
MIC (Escherichia coli): 800 µg/mL
MIC (Staphylococcus aureus): 800 µg/mL

CCCC[n+]1cn(CCOc2ccccc2OCC)c2ccccc21.[Br-]
MIC (Candida tropicalis): 25 µg/mL
MIC (Candida albicans): 25 µg/mL
MIC (Enterococcus faecalis): 50 µg/mL
MIC (Pseudomonas aeruginosa): 50 µg/mL
MIC (Escherichia coli): 50 µg/mL
MIC (Staphylococcus aureus): 50 µg/mL

CCOc1ccccc1OCCn1c[n+](Cc2c(C)c(C)cc(C)c2C)c2ccccc21.[Br-]
MIC (Candida tropicalis): 400 µg/mL
MIC (Candida albicans): 400 µg/mL
MIC (Enterococcus faecalis): 800 µg/mL
MIC (Pseudomonas aeruginosa): 800 µg/mL
MIC (Escherichia coli): 400 µg/mL
MIC (Staphylococcus aureus): 400 µg/mL

CCOc1ccccc1OCCn1c[n+](CCOc2ccccc2OCC)c2ccccc21.[Br-]
MIC (Candida tropicalis): 200 µg/mL
MIC (Candida albicans): 200 µg/mL
MIC (Enterococcus faecalis): 400 µg/mL
MIC (Pseudomonas aeruginosa): 400 µg/mL
MIC (Escherichia coli): 200 µg/mL
MIC (Staphylococcus aureus): 200 µg/mL

CCOc1ccccc1OCCn1c[n+](Cc2c(C)cc(C)cc2C)c2ccccc21.[Br-]
MIC (Candida tropicalis): 50 µg/mL
MIC (Candida albicans): 50 µg/mL
MIC (Enterococcus faecalis): 800 µg/mL
MIC (Pseudomonas aeruginosa): 800 µg/mL
MIC (Escherichia coli): 50 µg/mL
MIC (Staphylococcus aureus): 50 µg/mL

CCOc1ccccc1OCCn1c[n+](Cc2cccc(OC)c2)c2ccccc21.[Cl-]
MIC (Candida tropicalis): 800 µg/mL
MIC (Candida albicans): 800 µg/mL
MIC (Enterococcus faecalis): 800 µg/mL
MIC (Pseudomonas aeruginosa): 800 µg/mL
MIC (Escherichia coli): 800 µg/mL
MIC (Staphylococcus aureus): 800 µg/mL

CC1(C)S[C@@H]2[C@H](NC(=O)[C@H](N)c3ccccc3)C(=O)N2[C@H]1C(=O)O [AMPICILLIN]
MIC (Enterococcus faecalis): 1.56 µg/mL (≈ 4.46 µM)
MIC (Escherichia coli): 3.12 µg/mL (≈ 8.93 µM)
MIC (Staphylococcus aureus): 3.12 µg/mL (≈ 8.93 µM)

O=C(O)c1cn(C2CC2)c2cc(N3CCNCC3)c(F)cc2c1=O [CIPROFLOXACIN]
MIC (Enterococcus faecalis): 0.78 µg/mL (≈ 2.35 µM)
MIC (Pseudomonas aeruginosa): 3.12 µg/mL (≈ 9.42 µM)
MIC (Staphylococcus aureus): 0.39 µg/mL (≈ 1.18 µM)

OC(Cn1cncn1)(Cn1cncn1)c1ccc(F)cc1F [FLUCONAZOLE]
MIC (Candida tropicalis): 3.12 µg/mL (≈ 10.2 µM)
MIC (Candida albicans): 3.12 µg/mL (≈ 10.2 µM)
